Laboratory results published in ChEMBL document CHEMBL1143276, “Synthesis and antimicrobial activities of halogenated bis(hydroxyphenyl)methanes” (2009).
≈ marks a conversion by molar mass, not a printed value.

Legend:
Staphylococcus aureus = assay: Antibacterial activity against Staphylococcus aureus ATCC 6538p after 24 hrs; type: functional
Micrococcus luteus = assay: Antibacterial activity against Micrococcus luteus […] after 24 hrs; type: functional
Proteus vulgaris = assay: Antibacterial activity against Proteus vulgaris ATCC 3851 after 24 hrs; type: functional; conditions: ATCC 3851, 24 h
Candida albicans = assay: Antifungal activity against Candida albicans ATCC 10231 after 48 to 72 hrs; type: functional
Salmonella typhimurium = assay: Antibacterial activity against Salmonella Typhimurium ATCC 14028 after 24 hrs; type: functional, Salmonella enterica subsp. enterica serovar Typhimurium; conditions: Salmonella enterica, ATCC 14028, 24 h
Aspergillus fumigatus = assay: Antifungal activity against Aspergillus fumigatus HIC 6094 after 48 to 72 hrs; type: functional
Escherichia coli = assay: Antibacterial activity against Escherichia coli ATCC 25922 after 24 hrs; type: functional; conditions: ATCC 25922, 24 h
[1] = system: Trichophyton mentagrophytes; assay: Antifungal activity against Trichophyton mentagrophytes IFO 40996 after 48 to 72 hrs; type: functional
Bacillus subtilis = assay: Antibacterial activity against Bacillus subtilis ATCC 6633 after 24 hrs; type: functional; conditions: ATCC 6633, 24 h
Trichophyton rubrum = assay: Antifungal activity against Trichophyton rubrum IFO 9185 after 48 to 72 hrs; type: functional

Row | SMILES | MIC (Staphylococcus aureus) | MIC (Micrococcus luteus) | MIC (Proteus vulgaris) | MIC (Candida albicans) | MIC (Salmonella typhimurium) | MIC (Aspergillus fumigatus) | MIC (Escherichia coli) | MIC [1] | MIC (Bacillus subtilis) | MIC (Trichophyton rubrum)
1 | Oc1c(Br)cc(Br)cc1Cc1cc(Br)cc(Br)c1O | 1.56 µg/mL (≈ 3.02 µM) | 1.56 µg/mL (≈ 3.02 µM) | 1.56 µg/mL (≈ 3.02 µM) | > 100 µg/mL | 3.12 µg/mL (≈ 6.05 µM) | > 100 µg/mL | > 100 µg/mL | > 100 µg/mL | 1.56 µg/mL (≈ 3.02 µM) | > 100 µg/mL
2 | Oc1cc(Cl)c(Cc2cc(O)c(O)c(Cl)c2Cl)cc1O | 12.5 µg/mL (≈ 37.3 µM) | 12.5 µg/mL (≈ 37.3 µM) | 25 µg/mL (≈ 74.5 µM) | 100 µg/mL (≈ 298 µM) | 25 µg/mL (≈ 74.5 µM) | > 100 µg/mL | 100 µg/mL (≈ 298 µM) | 25 µg/mL (≈ 74.5 µM) | 25 µg/mL (≈ 74.5 µM) | > 100 µg/mL
3 | Oc1ccccc1Cc1cc(Cl)ccc1O | 25 µg/mL (≈ 107 µM) | 25 µg/mL (≈ 107 µM) | 25 µg/mL (≈ 107 µM) | 50 µg/mL (≈ 213 µM) | 25 µg/mL (≈ 107 µM) | 50 µg/mL (≈ 213 µM) | 50 µg/mL (≈ 213 µM) | 6.25 µg/mL (≈ 26.6 µM) | 25 µg/mL (≈ 107 µM) | 50 µg/mL (≈ 213 µM)
4 | Oc1cc(Br)c(Cc2cc(O)c(O)cc2Br)cc1O | 25 µg/mL (≈ 64.1 µM) | 12.5 µg/mL (≈ 32 µM) | 25 µg/mL (≈ 64.1 µM) | > 100 µg/mL | 25 µg/mL (≈ 64.1 µM) | > 100 µg/mL | > 100 µg/mL | 50 µg/mL (≈ 128 µM) | 25 µg/mL (≈ 64.1 µM) | > 100 µg/mL
5 | Oc1cc(Cc2c(Br)c(O)c(O)c(Br)c2Br)c(Br)c(Br)c1O | 25 µg/mL (≈ 39.9 µM) | 25 µg/mL (≈ 39.9 µM) | 12.5 µg/mL (≈ 19.9 µM) | 6.25 µg/mL (≈ 9.97 µM) | 25 µg/mL (≈ 39.9 µM) | 3.12 µg/mL (≈ 4.98 µM) | 50 µg/mL (≈ 79.8 µM) | 1.56 µg/mL (≈ 2.49 µM) | 25 µg/mL (≈ 39.9 µM) | 1.56 µg/mL (≈ 2.49 µM)
6 | Oc1cc(Cl)c(Cc2cc(O)c(O)cc2Cl)cc1O | 50 µg/mL (≈ 166 µM) | 25 µg/mL (≈ 83 µM) | 50 µg/mL (≈ 166 µM) | > 100 µg/mL | 50 µg/mL (≈ 166 µM) | > 100 µg/mL | > 100 µg/mL | 50 µg/mL (≈ 166 µM) | 50 µg/mL (≈ 166 µM) | > 100 µg/mL
7 | Oc1ccccc1Cc1cccc(Cl)c1O | 50 µg/mL (≈ 213 µM) | 50 µg/mL (≈ 213 µM) | 100 µg/mL (≈ 426 µM) | 50 µg/mL (≈ 213 µM) | 100 µg/mL (≈ 426 µM) | 100 µg/mL (≈ 426 µM) | 100 µg/mL (≈ 426 µM) | 12.5 µg/mL (≈ 53.3 µM) | 100 µg/mL (≈ 426 µM) | 100 µg/mL (≈ 426 µM)
8 | C[C@@H]1[C@H](O)[C@@H](C)/C=C/C=C/C=C/C=C/C=C/C=C/C=C/[C@H](O[C@@H]2O[C@H](C)[C@@H](O)[C@H](N)[C@@H]2O)C[C@@H]2O[C@](O)(C[C@@H](O)C[C@@H](O)[C@H](O)CC[C@@H](O)C[C@@H](O)CC(=O)O[C@H]1C)C[C@H](O)[C@H]2C(=O)O [AMPHOTERICIN B] |  |  |  | 6.25 µg/mL (≈ 6.76 µM) |  | 3.12 µg/mL (≈ 3.38 µM) |  | 3.12 µg/mL (≈ 3.38 µM) |  | 3.12 µg/mL (≈ 3.38 µM)
9 | CC1(C)S[C@@H]2[C@H](NC(=O)[C@H](N)c3ccccc3)C(=O)N2[C@H]1C(=O)O [AMPICILLIN] | 1.56 µg/mL (≈ 4.46 µM) | 1.56 µg/mL (≈ 4.46 µM) | 3.12 µg/mL (≈ 8.93 µM) |  | 3.12 µg/mL (≈ 8.93 µM) |  | 12.5 µg/mL (≈ 35.8 µM) |  | 1.56 µg/mL (≈ 4.46 µM) | 
10 | Oc1ccc(Cl)cc1Cc1cc(Cl)ccc1O [DICHLOROPHEN] | 12.5 µg/mL (≈ 46.4 µM) | 12.5 µg/mL (≈ 46.4 µM) | 12.5 µg/mL (≈ 46.4 µM) | 25 µg/mL (≈ 92.9 µM) | 6.25 µg/mL (≈ 23.2 µM) | 50 µg/mL (≈ 186 µM) | 100 µg/mL (≈ 372 µM) | 12.5 µg/mL (≈ 46.4 µM) | 12.5 µg/mL (≈ 46.4 µM) | 50 µg/mL (≈ 186 µM)

Second part, the molecule after the results:

Row | MIC (Staphylococcus aureus) | MIC (Micrococcus luteus) | MIC (Proteus vulgaris) | MIC (Candida albicans) | MIC (Salmonella typhimurium) | MIC (Aspergillus fumigatus) | MIC (Escherichia coli) | MIC [1] | MIC (Bacillus subtilis) | MIC (Trichophyton rubrum) | SMILES
11 | 25 µg/mL (≈ 45.6 µM) | 25 µg/mL (≈ 45.6 µM) | 25 µg/mL (≈ 45.6 µM) | 25 µg/mL (≈ 45.6 µM) | 25 µg/mL (≈ 45.6 µM) | 12.5 µg/mL (≈ 22.8 µM) | 50 µg/mL (≈ 91.3 µM) | 1.56 µg/mL (≈ 2.85 µM) | 25 µg/mL (≈ 45.6 µM) | 12.5 µg/mL (≈ 22.8 µM) | Oc1cc(Cc2cc(O)c(O)c(Br)c2Br)c(Br)c(Br)c1O
12 | 0.78 µg/mL (≈ 2.31 µM) | 0.78 µg/mL (≈ 2.31 µM) | 0.78 µg/mL (≈ 2.31 µM) | 100 µg/mL (≈ 296 µM) | 3.12 µg/mL (≈ 9.23 µM) | > 100 µg/mL | > 100 µg/mL | 12.5 µg/mL (≈ 37 µM) | 1.56 µg/mL (≈ 4.62 µM) | > 100 µg/mL | Oc1c(Cl)cc(Cl)cc1Cc1cc(Cl)cc(Cl)c1O
13 | 25 µg/mL (≈ 67.6 µM) | 25 µg/mL (≈ 67.6 µM) | 25 µg/mL (≈ 67.6 µM) | 50 µg/mL (≈ 135 µM) | 25 µg/mL (≈ 67.6 µM) | 50 µg/mL (≈ 135 µM) | 50 µg/mL (≈ 135 µM) | 3.12 µg/mL (≈ 8.43 µM) | 25 µg/mL (≈ 67.6 µM) | 50 µg/mL (≈ 135 µM) | Oc1cc(Cc2cc(O)c(O)c(Cl)c2Cl)c(Cl)c(Cl)c1O
14 | > 100 µg/mL | 100 µg/mL (≈ 375 µM) | > 100 µg/mL | > 100 µg/mL | > 100 µg/mL | > 100 µg/mL | > 100 µg/mL | > 100 µg/mL | > 100 µg/mL | > 100 µg/mL | Oc1ccc(Cc2cc(O)c(O)cc2Cl)cc1O
15 | > 100 µg/mL | 100 µg/mL (≈ 321 µM) | > 100 µg/mL | > 100 µg/mL | > 100 µg/mL | > 100 µg/mL | > 100 µg/mL | > 100 µg/mL | > 100 µg/mL | > 100 µg/mL | Oc1ccc(Cc2cc(O)c(O)cc2Br)cc1O
16 | > 100 µg/mL | > 100 µg/mL | > 100 µg/mL | > 100 µg/mL | > 100 µg/mL | > 100 µg/mL | > 100 µg/mL | > 100 µg/mL | > 100 µg/mL | > 100 µg/mL | Brc1cc2c(cc1Cc1cc3c(cc1Br)OCO3)OCO2
